The text below walks through data of US20010014345A1, “MATERIAL, METHOD AND APPARATUS FOR INHIBITING BACTERIAL GROWTH IN AN AQUEOUS MEDIUM” (priority 1995, published 2001).

For data set [1], the system named is Pseudomonas aeruginosa. In words: Biocide efficiency (B.E.) of immobilised biocides in recirculating column test. Type of data set: cell-based.
Data set [2] can be described thus: physchem.
Data set [3] has as its system Pseudomonas aeruginosa. In words: Recirculating column test of immobilised biocide (active beads), viable bacterial counts / growth curve. In kind it is cell-based. Conditions: active beads on Amberlite XAD-4 or XAD-2, 10x1 cm column, after 24 hours, FIG. 2.
A short description of data set [4]: Presence or absence of free biocide in filter-sterilised culture after contact with active beads (MS and/or HPLC; leaching). Type of data set: physicochemical.
Data set [5] is described as follows: Partition coefficients between octanol and water by UV/visible absorption.
Setting [6] is: column length 10 cm, biocide immobilised on Amberlite XAD-4, 24 h, 30° C., 13.5 ml/min.

The structures appear in SMILES notation. “And” between values parts separate entries of the source, which are not always exact repeats. Equal values may be shown once. Read-outs that look alike come from different tables or passages of the source.

What is called logP is the decadic logarithm of the partition coefficient of the neutral form, usually between octanol and water. Low values mean a more hydrophilic compound, high ones a more lipophilic compound. For `O=[N+]([O-])C(Br)(CO)CO` [Bronopol], the “B.E. (t-24 h)” value in data set [1] (setting [6]) is given as −0.80. Further, the logP in data set [2] stood at 0.18.

Turning to `CCCCCCCCn1sc2ccccc2c1=O` [Compound 1, 2-n-octylbenzoisothiazolin-3-one], the “bacterial population versus blank bead controls” value in data set [3] was “significantly lower”. Besides, the “B.E. (t-24 h)” value in data set [1] (setting [6]) is reported as 0.48.

For the compound `CCCCCCCCCCCCCCCCn1sc2ccccc2c1=O` [Compound 2, 2-n-hexadecyl-benzoisothiazolin-3-one], the “B.E. (t-24 h)” value was 0.84 in data set [1] (column length 10 cm, biocide immobilised on Amberlite XAD-2, 24 h, 30° C., 13.5 ml/min); 0.68 and 1.02 and 0.82 and 0.91 in data set [1] (setting [6]); 0.99 and 0.64 and 0.75 in data set [1] (column length 20 cm, biocide immobilised on Amberlite XAD-4, 24 h); 0.64 and 0.86 in data set [1] (column length 30 cm, biocide immobilised on Amberlite XAD-4, 24 h); 0.90 in data set [1] (column length 40 cm, biocide immobilised on Amberlite XAD-4, 24 h).

Consider `CCCCCCCCCCCCCCCCCCn1sc(Cl)cc1=O` [Compound 4, 5-chloro-2-n-octadecyl-isothiazolin-3-one], for which, in data set [1], the “B.E. (t-24 h)” value was 0.70 and 0.82 and 0.73 and 0.99 and 0.98.

Turning to `CCCCCCCCn1sccc1=O` [Compound 5, 2-n-octyl-isothiazolin-3-one], in data set [1], the “B.E. (t-24 h)” value was 0.80 and 0.60. Also, in data set [4], the “Present (MS): free biocide in solution” value is “trace”.

`CCCCCCCCCCCC[N+](C)(C)CCOc1ccccc1` [Domiphen] gave a logP in data set [2] of 1.7.

On to `Cn1sc2c(c1=O)CCC2` [Promexal], for which, in data set [5] (25° C., UV/visible absorption), the “P (partition coefficient between octanol and water)” value is reported as “˜4.5”. The logP in data set [5] (n-octanol/water) stood at 0.6.

Turning to `O=c1[nH]sc2ccccc12` [Proxel], the logP in data set [2] is -1.3.
